Inhibition and microsomal CLint data for 16 compounds are collected here from ChEMBL document CHEMBL4699662, “Identification and structure-activity relationship studies of small molecule inhibitors of the human cathepsin D” (Bioorg Med Chem, 2021).

Molecules are shown by their SMILES.

Series [1] has as its target Cathepsin D (Homo sapiens) (UniProt P07339). As to conditions: dose 182.0 nM, time 130.0 min.
Series [2] can be described thus: in vitro. As to conditions: human, liver microsomes. (Liver microsomes are vesicles of endoplasmic reticulum, rich in cytochrome P450 enzymes.)
Series [3] can be described thus: in vitro. The conditions noted are these: mouse, liver microsomes.

For orientation: inhibition means how much of the control response was suppressed. Higher therefore signals a strong effect. One may read the microsomal CLint as the rate of metabolic loss divided by the concentration. The low end stands for greater metabolic stability, the high end for faster metabolism.

Sequence of Cathepsin D (Homo sapiens) (P07339 65-162 limits assumed): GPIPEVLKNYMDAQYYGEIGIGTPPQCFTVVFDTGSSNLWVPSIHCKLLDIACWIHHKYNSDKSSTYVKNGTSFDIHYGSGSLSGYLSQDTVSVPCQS
Sequence of Cathepsin D (Homo sapiens) (P07339 169-412 limits assumed): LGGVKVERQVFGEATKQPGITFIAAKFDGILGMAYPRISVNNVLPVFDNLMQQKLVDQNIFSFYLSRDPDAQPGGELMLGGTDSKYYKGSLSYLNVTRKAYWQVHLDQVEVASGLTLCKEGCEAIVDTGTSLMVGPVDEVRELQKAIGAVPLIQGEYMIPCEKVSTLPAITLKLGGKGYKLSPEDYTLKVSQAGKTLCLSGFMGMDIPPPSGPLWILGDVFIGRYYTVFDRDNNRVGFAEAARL

`CC(C)CC(=O)N[C@H](C(=O)N[C@H](C(=O)N[C@@H](CC(C)C)[C@@H](O)CC(=O)N[C@@H](C)C(=O)N[C@@H](CC(C)C)[C@@H](O)CC(=O)O)C(C)C)C(C)C` gave an inhibition in series [1] of 98.7%. Turning to `COc1ccc(CC(=O)NC(=N)N[C@H](CN2CCOCC2)C(=O)Nc2cc(S(N)(=O)=O)ccc2C)cc1OC`, the microsomal CLint at 0.5 h, 1 µM in the series “in vitro [2]” was determined as 31.8 µL/min/mg; in “in vitro [3]”, 49.1 µL/min/mg. The matching figures for `CCC[C@@H](NC(=N)NC(=O)Cc1ccc(OC)c(OC)c1)C(=O)Nc1cc(S(N)(=O)=O)ccc1C`: 89.3 µL/min/mg and 266 µL/min/mg.

Consider `CNS(=O)(=O)c1ccc(C)c(NC(=O)[C@@H](CC2CCCCC2)NC(=N)NC(=O)Cc2cc(Cl)cc(OC)c2)c1`, for which the microsomal CLint at 0.5 h, 1 µM in “in vitro [2]” and in the series “in vitro [3]” was 212 µL/min/mg throughout. `COc1ccc(CC(=O)NC(=N)N[C@H](Cn2cc(-c3ccccc3)nn2)C(=O)Nc2cc(S(N)(=O)=O)ccc2C)cc1OC`: the results for the microsomal CLint at 0.5 h, 1 µM in “in vitro [2]” and in the series “in vitro [3]” were 340 µL/min/mg and 367 µL/min/mg, respectively. The matching figures for `Cc1ccc(S(=O)(=O)N(C)C)cc1NC(=O)[C@@H](CC1CCCCC1)NC(=N)NC(=O)Cc1cccc(C#N)c1`: 287 µL/min/mg and 250 µL/min/mg. In the case of `CNS(=O)(=O)c1ccc(C)c(NC(=O)[C@@H](C)NC(=N)NC(=O)Cc2ccc(OC)c(OC)c2)c1`, the values for the microsomal CLint at 0.5 h, 1 µM in “in vitro [2]” and in “in vitro [3]” were 134 µL/min/mg and 220 µL/min/mg, respectively. On to `COc1ccc(CC(=O)NC(=N)N[C@H](CC2CCCCC2)C(=O)Nc2cc(S(=O)(=O)N(C(C)C)C(C)C)ccc2C)cc1OC`, for which the microsomal CLint at 0.5 h, 1 µM in the series “in vitro [2]” and in “in vitro [3]” was 259 µL/min/mg in each case. In the case of `Cc1ccc(S(=O)(=O)N(C)C)cc1NC(=O)[C@@H](CC1CCCCC1)NC(=N)NC(=O)Cc1ccc(F)c(F)c1`, the intrinsic metabolic clearance (microsomal CLint) at 0.5 h, 1 µM in “in vitro [2]” was 163 µL/min/mg; in “in vitro [3]”, 264 µL/min/mg.

As to `Cc1ccc(S(=O)(=O)N(C)C)cc1NC(=O)[C@@H](CC1CCCCC1)NC(=N)NC(=O)Cc1ccccc1C(F)(F)F`, the microsomal CLint at 0.5 h, 1 µM turned out to be 208 µL/min/mg in the series “in vitro [2]” and 244 µL/min/mg in the series “in vitro [3]”. On to `COc1ccc(CC(=O)NC(=N)N[C@H](CCSC)C(=O)Nc2cc(S(N)(=O)=O)ccc2C)cc1OC`, for which the microsomal CLint at 0.5 h, 1 µM was found to be 262 µL/min/mg in “in vitro [2]” and 297 µL/min/mg in the series “in vitro [3]”. The corresponding values for `COc1ccc(CC(=O)NC(=N)N[C@H](CC2CCCCC2)C(=O)Nc2cc(S(=O)(=O)NC(C)C)ccc2C)cc1OC` are 277 µL/min/mg and 240 µL/min/mg. Regarding `CNS(=O)(=O)c1ccc(C)c(NC(=O)[C@H](CC2CCCCC2)NC(=N)NC(=O)Cc2ccc(OC)c(OC)c2)c1`, the intrinsic metabolic clearance (microsomal CLint) at 0.5 h, 1 µM in the series “in vitro [2]” turned out to be 176 µL/min/mg; in “in vitro [3]”, 180 µL/min/mg. The corresponding values for `COc1ccc(CC(=O)NC(=N)N[C@@H](C(=O)Nc2cc(S(N)(=O)=O)ccc2C)C2=CCC=CC2)cc1OC` are 138 µL/min/mg and 178 µL/min/mg. The matching figures for `COc1ccc(CC(=O)NC(=N)N[C@H](CC2CCCCC2)C(=O)Nc2cc(N(S(C)(=O)=O)S(C)(=O)=O)ccc2C)cc1OC`: 186 µL/min/mg and 165 µL/min/mg. The corresponding values for `CNS(=O)(=O)c1ccc(C)c(NC(=O)[C@@H](CC2CCCCC2)NC(=N)NC(=O)Cc2ccc(OC)c(OC)c2)c1` are 177 µL/min/mg and 177 µL/min/mg.
